Measured values: PubChem BioAssay AID256 (DTP/NCI, 2004)
Several values for one entry are separate records, joined by “and”; a condition that tells them apart may be missing. Equal entries are not always repeated. Toxic doses and inconclusive results are not listed. How the source made its calls: active means survival T/C of 150% or more; inactive means T/C below 125% in these data.

System: CD2F1 mice, L1210 leukemia ip, survival T/C
Experiment: NCI In Vivo Anticancer Drug Screen. Data for tumor model L1210 Leukemia (intraperitoneal) in CD2F1 (CDF1) mice
Details: endpoint: mean survival time, higher = longer survival
Procedure, shortened: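 Transplantable tumor in mice; compound-treated vs vehicle-treated groups. Read-out = treated/control ratio of the measured endpoint.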

[1] = dose: 100.0 mg/kg/injection, schedule: Q04DX002 (ip), vehicle: saline with Tween-80
[2] = dose: 100.0 mg/kg/injection, schedule: Q01DX009 (ip), vehicle: saline with Tween-80
[3] = dose: 200.0 mg/kg/injection, schedule: Q01DX009 (ip), vehicle: saline with Tween-80
[4] = dose: 400.0 mg/kg/injection, schedule: Q01DX009 (ip), vehicle: saline with Tween-80
[5] = dose: 25.0 mg/kg/injection, schedule: Q04DX002 (ip), vehicle: saline with Tween-80
[6] = dose: 50.0 mg/kg/injection, schedule: Q04DX002 (ip), vehicle: saline with Tween-80
[7] = dose: 100.0 mg/kg/injection, schedule: Q01DX001 (ip), vehicle: saline
[8] = dose: 200.0 mg/kg/injection, schedule: Q01DX001 (ip), vehicle: saline
[9] = dose: 100.0 mg/kg/injection, schedule: Q01DX009 (ip), vehicle: saline
[10] = dose: 25.0 mg/kg/injection, schedule: Q01DX009 (ip), vehicle: saline
[11] = dose: 50.0 mg/kg/injection, schedule: Q01DX009 (ip), vehicle: saline
[12] = dose: 100.0 mg/kg/injection, schedule: Q04DX003 (ip), vehicle: saline with Tween-80
[13] = dose: 200.0 mg/kg/injection, schedule: Q04DX003 (ip), vehicle: saline with Tween-80
[14] = dose: 400.0 mg/kg/injection, schedule: Q04DX003 (ip), vehicle: saline with Tween-80
[15] = dose: 100.0 mg/kg/injection, schedule: Q04DX003 (ip), vehicle: saline
[16] = dose: 100.0 mg/kg/injection, schedule: Q01DX001 (ip), vehicle: saline with Tween-80
[17] = dose: 200.0 mg/kg/injection, schedule: Q01DX001 (ip), vehicle: saline with Tween-80
[18] = dose: 400.0 mg/kg/injection, schedule: Q01DX001 (ip), vehicle: saline with Tween-80

Measured: T/C

Brc1nc(-c2ccccc2)cc(-c2ccccc2)c1-c1ccccc1
inactive: [1] 90 % of control | dose: 200.0 mg/kg/injection, schedule: Q04DX002 (ip), vehicle: saline with Tween-80 90 % of control | dose: 400.0 mg/kg/injection, schedule: Q04DX002 (ip), vehicle: saline with Tween-80 97 % of control

OC1C2CCC(C2)C1C(O)(C(F)(F)Cl)C(F)(F)Cl (configuration not stated)
inactive: [2] 97 % of control | [3] 91 % of control | [4] 87 % of control

O=C(NCCCCCCCCNC(=O)N1CC1)N1CC1
active: dose: 7.5 mg/kg/injection, schedule: Q01DX001 (ip), vehicle: carboxymethylcellulose (CMC) 152 % of control | dose: 11.0 mg/kg/injection, schedule: Q01DX001 (ip), vehicle: carboxymethylcellulose (CMC) 183 % of control
inactive: dose: 1.5 mg/kg/injection, schedule: Q01DX001 (ip), vehicle: carboxymethylcellulose (CMC) 117 % of control | dose: 2.25 mg/kg/injection, schedule: Q01DX001 (ip), vehicle: carboxymethylcellulose (CMC) 111 % of control | dose: 3.3 mg/kg/injection, schedule: Q01DX001 (ip), vehicle: carboxymethylcellulose (CMC) 121 % of control | dose: 5.0 mg/kg/injection, schedule: Q01DX001 (ip), vehicle: carboxymethylcellulose (CMC) 122 % of control

CCOC(=O)Nc1cc(F)cc(C(F)(F)F)c1F
inactive: [2] 97 % of control | [3] 97 % of control | [4] 109 % of control

O=C(O)c1ccc(Cl)cc1Nc1ccc(O)cc1
inactive: [5] 96 % of control | [6] 116 % of control | [1] 101 % of control and 102 % of control

Clc1ccc(-c2nnn3ccccc23)cc1
inactive: dose: 12.5 mg/kg/injection, schedule: Q01DX001 (ip), vehicle: saline with Tween-80 107 % of control | dose: 25.0 mg/kg/injection, schedule: Q01DX001 (ip), vehicle: saline with Tween-80 86 % of control | [7] 97 % of control | [8] 89 % of control

CN1C(=S)c2ccccc2S1(=O)=O
inactive: [9] 96 % of control | dose: 200.0 mg/kg/injection, schedule: Q01DX009 (ip), vehicle: saline 96 % of control | dose: 400.0 mg/kg/injection, schedule: Q01DX009 (ip), vehicle: saline 102 % of control

CCCN1CCN(c2ccccc2)CC1
inactive: [10] 103 % of control | [11] 103 % of control | [9] 96 % of control | [12] 103 % of control

OC(CN1CCOCC1)CN1CCOCC1
inactive: [7] 104 % of control | [8] 104 % of control | dose: 400.0 mg/kg/injection, schedule: Q01DX001 (ip), vehicle: saline 103 % of control

COc1ccc2nc3cc(Cl)ccc3c(NCCC[N+](C)(C)CCCCCCCCCCCCCCCC[N+](C)(C)CCCNc3c4ccc(Cl)cc4nc4ccc(OC)cc34)c2c1
inactive: dose: 1.56 mg/kg/injection, schedule: Q01DX009 (ip), vehicle: other 96 % of control | dose: 3.13 mg/kg/injection, schedule: Q01DX009 (ip), vehicle: other 94 % of control | dose: 6.25 mg/kg/injection, schedule: Q01DX009 (ip), vehicle: other 105 % of control

Cc1c(Cl)cccc1NC(=O)Oc1ccc(Cl)cc1Cl
inactive: [12] 95 % of control | [13] 97 % of control

CCCCn1cnc2c(SSc3ncnc4c3ncn4CCCC)ncnc21
inactive: [12] 116 % of control and 106 % of control | [13] 113 % of control | dose: 264.0 mg/kg/injection, schedule: Q04DX003 (ip), vehicle: saline with Tween-80 97 % of control | dose: 300.0 mg/kg/injection, schedule: Q04DX003 (ip), vehicle: saline with Tween-80 120 % of control | [14] 122 % of control and 111 % of control | dose: 600.0 mg/kg/injection, schedule: Q04DX003 (ip), vehicle: saline with Tween-80 97 % of control

COC1OC(COC(=O)c2ccccc2)C(N(C)C(C)=O)C1OC(=O)c1ccccc1 (configuration not stated)
inactive: dose: 75.0 mg/kg/injection, schedule: Q01DX001 (ip), vehicle: other 97 % of control | dose: 150.0 mg/kg/injection, schedule: Q01DX001 (ip), vehicle: other 103 % of control | dose: 300.0 mg/kg/injection, schedule: Q01DX001 (ip), vehicle: other 91 % of control

CCC(C)(O)c1cnc(CC(C)C)c(=O)n1O (configuration not stated)
inactive: dose: 75.0 mg/kg/injection, schedule: Q01DX001 (ip), vehicle: saline 98 % of control | dose: 150.0 mg/kg/injection, schedule: Q01DX001 (ip), vehicle: saline 102 % of control

CCn1c(C)[n+](CC)c2ccc(C(C)=O)cc21
inactive: dose: 25.0 mg/kg/injection, schedule: Q04DX003 (ip), vehicle: saline 104 % of control | dose: 50.0 mg/kg/injection, schedule: Q04DX003 (ip), vehicle: saline 108 % of control | [15] 106 % of control

N#Cc1cccc2c(S(=O)(=O)O)cccc12
inactive: [12] 98 % of control | [13] 90 % of control | [14] 104 % of control

O=C1CC2C3C=CC(C12)C1C(=O)OC(=O)C31 (configuration not stated)
inactive: [15] 107 % of control | dose: 200.0 mg/kg/injection, schedule: Q04DX003 (ip), vehicle: saline 98 % of control | dose: 400.0 mg/kg/injection, schedule: Q04DX003 (ip), vehicle: saline 91 % of control

CN(C)CCCN=Cc1ccccc1O.CN(C)CCCN=Cc1ccccc1O.[Ni+2]
inactive: dose: 6.25 mg/kg/injection, schedule: Q01DX009 (ip), vehicle: saline with Tween-80 100 % of control | dose: 12.5 mg/kg/injection, schedule: Q01DX009 (ip), vehicle: saline with Tween-80 101 % of control | dose: 25.0 mg/kg/injection, schedule: Q01DX009 (ip), vehicle: saline with Tween-80 89 % of control

Cc1ccc([N+](=O)[O-])cc1O
inactive: [10] 97 % of control | [11] 106 % of control | [9] 100 % of control

Cc1nc(N)nc2ccccc12
inactive: [7] 100 % of control

CCC(C)NC(=O)Nc1ccccc1C(F)(F)F (configuration not stated)
inactive: [16] 106 % of control | [2] 92 % of control | [17] 95 % of control | [3] 88 % of control | [18] 89 % of control | [4] 94 % of control

COc1ccc(NC(=O)Nc2ccccc2Cl)c(OC)c1
inactive: [5] 94 % of control | [6] 87 % of control | [1] 102 % of control

Cc1cccc(NC(=S)N(C)C)c1
inactive: [12] 104 % of control | [13] 102 % of control | [14] 94 % of control

Cn1c(=O)c2c(nc(NCCCO)n2C)n(C)c1=O
inactive: dose: 12.5 mg/kg/injection, schedule: Q01DX005 (ip), vehicle: distilled water + Tween-80 100 % of control | dose: 25.0 mg/kg/injection, schedule: Q01DX005 (ip), vehicle: distilled water + Tween-80 94 % of control | dose: 50.0 mg/kg/injection, schedule: Q01DX005 (ip), vehicle: distilled water + Tween-80 94 % of control | dose: 100.0 mg/kg/injection, schedule: Q01DX005 (ip), vehicle: distilled water + Tween-80 94 % of control | dose: 200.0 mg/kg/injection, schedule: Q01DX005 (ip), vehicle: distilled water + Tween-80 98 % of control

Cc1cc(C)[nH]c(=S)n1
inactive: dose: 50.0 mg/kg/injection, schedule: Q01DX009 (ip), vehicle: saline with Tween-80 100 % of control | [2] 96 % of control | [3] 96 % of control

Nc1nc(N)c2nc(CNc3ccc(C(=O)NC(CCC(=O)O)C(=O)O)cc3)ccc2n1 (configuration not stated)
inactive: dose: 15.63 micrograms/kg/injection, schedule: Q01DX005 (ip), vehicle: sodium bicarbonate 118 % of control | dose: 31.25 micrograms/kg/injection, schedule: Q01DX005 (ip), vehicle: sodium bicarbonate 118 % of control | dose: 62.5 micrograms/kg/injection, schedule: Q01DX005 (ip), vehicle: sodium bicarbonate 120 % of control and 110 % of control | dose: 125.0 micrograms/kg/injection, schedule: Q01DX005 (ip), vehicle: sodium bicarbonate 113 % of control

Nc1nc(N)c(-c2ccc(Cl)cc2)c(CNc2cccc([N+](=O)[O-])c2)n1
inactive: dose: 100.0 mg/kg/injection, schedule: Q01DX001 (ip), vehicle: other 95 % of control | dose: 200.0 mg/kg/injection, schedule: Q01DX001 (ip), vehicle: other 94 % of control | dose: 400.0 mg/kg/injection, schedule: Q01DX001 (ip), vehicle: other 90 % of control

[Cl][Pt][Cl].c1ccc([PH+](c2ccccc2)c2ccccc2)cc1.c1ccc([PH+](c2ccccc2)c2ccccc2)cc1
inactive: [16] 95 % of control | [17] 92 % of control | [18] 92 % of control

CCCCCCCCCCCCCCCCOc1ccc(S(=O)(=O)NC(C)(C)C)cc1[N+](=O)[O-]
inactive: [12] 105 % of control | [13] 96 % of control | [14] 94 % of control
